Read-outs that look alike come from different tables or passages of the source.
Legend:
[1] = test system: Mino cells; experiment: Antiproliferative effect, MTS cell viability assay, Mino cells; format: cell-based; conditions: Homo sapiens, MINO, Mino mantle cell lymphoma cells; read-out: IC50 (anti-proliferation) Mino cells
In short: (§1)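 MTS read-out, A490 of formazan from metabolically active cells; compound 0–10 μM (0, 0.001, 0.01, 0.1, 1, 10 μM), 72 h exposure.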

[2] = test system: JeKo-1 cells; experiment: Antiproliferative effect, MTS cell viability assay, JeKo-1 cells; format: cell-based; conditions: Homo sapiens; JeKo-1 mantle cell lymphoma cells; read-out: IC50 (anti-proliferation) JeKO-1 cells
In short: as §1

[3] = biological target: BTK (Homo sapiens, UniProt Q06187); experiment: Degradation of BTK protein in Namalwa cells (Western blot; DC50, Dmax); conditions: for DC50: cell line not given
[4] = read-out: DC50 (BTK degradation), concentration giving 50% reduction of BTK expression level
[5] = read-out: Dmax (BTK degradation)

BTK, sequence (Q06187 whole entry): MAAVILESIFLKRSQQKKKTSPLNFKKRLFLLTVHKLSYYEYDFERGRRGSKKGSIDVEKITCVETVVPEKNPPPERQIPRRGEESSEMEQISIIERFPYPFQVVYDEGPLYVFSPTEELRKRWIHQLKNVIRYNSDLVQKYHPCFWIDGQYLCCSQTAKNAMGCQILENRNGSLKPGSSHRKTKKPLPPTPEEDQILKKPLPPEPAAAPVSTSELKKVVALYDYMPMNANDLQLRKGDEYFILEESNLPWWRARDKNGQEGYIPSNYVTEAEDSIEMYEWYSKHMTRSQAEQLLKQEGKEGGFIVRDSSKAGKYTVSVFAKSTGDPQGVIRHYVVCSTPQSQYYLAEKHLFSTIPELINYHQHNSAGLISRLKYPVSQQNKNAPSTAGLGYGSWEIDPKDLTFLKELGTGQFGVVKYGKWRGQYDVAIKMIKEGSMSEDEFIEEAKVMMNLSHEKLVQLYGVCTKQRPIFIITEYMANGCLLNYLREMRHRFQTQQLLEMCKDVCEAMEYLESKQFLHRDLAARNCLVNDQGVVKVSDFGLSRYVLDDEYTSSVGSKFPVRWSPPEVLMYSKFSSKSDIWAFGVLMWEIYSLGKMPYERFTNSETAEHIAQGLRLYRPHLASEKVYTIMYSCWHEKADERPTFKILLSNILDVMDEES

Row | Compound | IC50 [1] [µM] | IC50 [2] [µM] | DC50 [3, 4] [µM] | Dmax [3, 5] [%] | Dmax [3] [%] | DC50 ([3]; BTK degradation) [µM]
1 | Nc1ncnc2c1c(-c1ccc(Oc3ccccc3)cc1)nn2[C@@H]1CCCN(CCNC(=O)N2CCN(c3ccc4c(c3)C(=O)N(C3CCC(=O)NC3=O)C4=O)CC2)C1 (stereo partly drawn) [Compound 526, N-(2-((R)-3-(4-amino-3-(4-phenoxyphenyl)-1H-pyrazolo[3,4-d]pyrimidin-1-yl)piperidin-1-yl)ethyl)-4-(2-(2,6-dioxopiperidin-3-yl)-1,3-dioxoisoindolin-5-yl)piperazine-1-carboxamide] | 1 to 10 | 1 to 10 | < 0.01 | > 90 |  | 
2 | Nc1ncnc2c1c(-c1ccc(Oc3ccccc3)cc1)nn2C1CCN(CC2CCN(CC3CCN(c4ccc5c(c4)oc(=O)n5C4CCC(=O)NC4=O)CC3)CC2)CC1 (stereo not shown) [Compound 544, 3-(6-(4-((4-((4-(4-amino-3-(4-phenoxyphenyl)-1H-pyrazolo[3,4-d]pyrimidin-1-yl)piperidin-1-yl)methyl)piperidin-1-yl)methyl)piperidin-1-yl)-2-oxobenzo[d]oxazol-3(2H)-yl)piperidine-2,6-dione] | 1 to 10 | 1 to 10 | 0.01 to 0.05 | > 90 |  | 
3 | Nc1ncnc2c1c(-c1ccc(Oc3ccccc3)cc1)nn2C1CCN(C2CCN(C(=O)N3CCC(CN4CCN(c5ccc6c(c5)C(=O)N(C5CCC(=O)NC5=O)C6=O)CC4)CC3)CC2)CC1 (stereo not shown) [Compound 239, 5-(4-((1-(4-(4-amino-3-(4-phenoxyphenyl)-1H-pyrazolo[3,4-d]pyrimidin-1-yl)-[1,4′-bipiperidine]-1′-carbonyl)piperidin-4-yl)methyl)piperazin-1-yl)-2-(2,6-dioxopiperidin-3-yl)isoindoline-1,3-dione] | 1 to 10 | < 1 |  |  | > 90 | 0.01 to 0.05
4 | Nc1ncnc2c1c(-c1ccc(Oc3ccccc3)cc1)nn2C1CCN(C2CCN(C(=O)N3CCC(N4CCC(c5ccc6c(c5)CN(C5CCC(=O)NC5=O)C6=O)CC4)CC3)CC2)CC1 (stereo not shown) [Compound 236, 3-(5-(1′-(4-(4-amino-3-(4-phenoxyphenyl)-1H-pyrazolo[3,4-d]pyrimidin-1-yl)-[1,4′-bipiperidine]-1′-carbonyl)-[1,4′-bipiperidin]-4-yl)-1-oxoisoindolin-2-yl)piperidine-2,6-dione] | 1 to 10 | 1 to 10 |  |  | > 90 | 0.01 to 0.05
5 | Nc1ncnc2c1c(-c1ccc(Oc3ccccc3)cc1)nn2C1CCN(C2CCN(CCCCC#Cc3ccc(N4CCC(=O)NC4=O)cc3)C2)CC1 (stereo not shown) [Compound 536, 1-(4-(6-(3-(4-(4-amino-3-(4-phenoxyphenyl)-1H-pyrazolo[3,4-d]pyrimidin-1-yl)piperidin-1-yl)pyrrolidin-1-yl)hex-1-yn-1-yl)phenyl)dihydropyrimidine-2,4(1H,3H)-dione] | > 10 | > 10 | > 0.05 | > 50 |  | 
6 | Nc1ncnc2c1c(-c1ccc(Oc3ccccc3)cc1)nn2C1CCN(C2CCN(CC3CCN(c4ccc(N5CCC(=O)NC5=O)cc4)CC3)CC2)CC1 [Compound 568, 1-(4-(4-((4-(4-amino-3-(4-phenoxyphenyl)-1H-pyrazolo[3,4-d]pyrimidin-1-yl)-[1,4′-bipiperidin]-1′-yl)methyl)piperidin-1-yl)phenyl)dihydropyrimidine-2,4(1H,3H)-dione] | 1 to 10 | 1 to 10 | > 0.05 | > 75 |  | 
7 | NC(=O)c1c(-c2ccc(Oc3ccccc3)cc2)nn2c1NCCC2C1CCN(CC2CCN(CCN3CCN(c4ccc5c(c4)CN(C4CCC(=O)NC4=O)C5=O)CC3)CC2)CC1 (stereo not shown) [Compound 316, 7-(1-((1-(2-(4-(2-(2,6-dioxopiperidin-3-yl)-1-oxoisoindolin-5-yl)piperazin-1-yl)ethyl)piperidin-4-yl)methyl)piperidin-4-yl)-2-(4-phenoxyphenyl)-4,5,6,7-tetrahydropyrazolo[1,5-a]pyrimidine-3-carboxamide] | 1 to 10 | 1 to 10 |  |  | > 75 | 0.01 to 0.05

From US12139492B2 (Endotarget Inc., priority 2021, dated 2024)
